Values quoted from earlier work, collected in US20080033027A1, “Drug combination pharmaceutical compositions and methods for using them” (VICUS THERAPEUTICS SPE 1, LLC, priority 2005, published 2008).
Structures can show the parent of a compound that is named as a salt. Where two headings read alike, the source gives them in different places.

Assays:
[1] = for solubility in ethanol / alcohol: alcohol(s)
[2] = for Elimination, Biliary/fecal (%): share eliminated by the biliary/fecal route; for Elimination, Renal (%): share eliminated by the renal route; for Elimination (% unchanged): value in parentheses
[3] = oral EPA, after entering the blood stream
[4] = system: cachectic severely burned children; cachectic metastatic cancer patients
[5] = cachectic metastatic cancer patients
[6] = cachectic severely burned children

Compound | Half-life ([2]; in vivo) [h] | Oral Absorp. (%) ([2]; in vivo) | Elimination, Renal (%) [2] | Time to Peak Effect Single dose [2] [h] | Biotransformation ([2]; in vivo) | Removable by Hemodialysis ([2]; in vivo) | Elimination (% unchanged) [2] | Elimination (route) ([2]; in vivo) | other results
COCCc1ccc(OCC(O)CNC(C)C)cc1 (racemic) [Metoprolol succinate, (±)1-(isopropylamino)-3-[p-(2-methoxyethyl)phenoxy]-2-propanol succinate (2:1) (salt)] |  |  |  |  |  |  |  |  | solubility in ethanol / alcohol [1]: sparingly soluble; solubility in water [1]: freely soluble
COCCc1ccc(OCC(O)CNC(C)C)cc1 (racemic) [Metoprolol tartrate, (±)-1-(isopropylamino)-3-(p-(2-(methoxyethyl)phenoxy)-2-propanol (2:1) dextrotartrate salt] |  |  |  |  |  |  |  |  | solubility in ethanol / alcohol [1]: freely soluble; solubility in water [1]: very soluble
CCc1cccc2c3c([nH]c12)C(CC)(CC(=O)O)OCC3 (single isomer, unassigned; (+)) [Etodolac, (+) 1,8-diethyl-1,3,4,9-tetrahydropyrano-[3,4-b]indole-1-acetic acid] |  |  |  |  |  |  |  |  | GI complications rate (among non-specific Cox inhibitors): lowest; cardiovascular events (compared with specific cox2 inhibitors): without the reported increase; solubility in ethanol / alcohol [1]: soluble; solubility in water [1]: insoluble
CCCC(=O)Nc1ccc(OCC(O)CNC(C)C)c(C(C)=O)c1 (stereo not shown) [Acebutolol] | 3 to 4 | 70% | 30-40% |  |  |  |  |  | Elimination, Biliary/fecal (%) [2]: 50-60%
CC(C)NCC(O)COc1ccc(CC(N)=O)cc1 (stereo not shown) [Atenolol] |  | 50-60% | 85-100% | 2 to 4 |  |  |  |  | 
CC(C)NCC(O)COc1ccc(CCOCC2CC2)cc1 (stereo not shown) [Betaxolol] | 14 to 22 | 80-89% | > 80% | 3 to 4 | Hepatic | No | 15% |  | 
CC(C)NCC(O)COc1ccc(COCCOC(C)C)cc1 (stereo not shown) [Bisoprolol] | 9 to 12 | 80-90% |  |  | Hepatic | No | 50% | Renal | Elimination, Biliary/fecal (%) [2]: <2% Fecal; Half-life ([2]; stated in the text): 10 to 12 h
CC(C)(C)NCC(O)COc1cccc2c1CCC(=O)N2 (stereo not shown) [Carteolol] | 6 | 85% |  | 1 to 3 | Hepatic |  | (50-70) % | Renal | 
COc1ccccc1OCCNCC(O)COc1cccc2[nH]c3ccccc3c12 (stereo not shown) [Carvedilol] | 7 to 10 | 25-35% | <2% Renal |  | Hepatic | No |  |  | 
CC/C=C\C/C=C\C/C=C\C/C=C\C/C=C\CCCC(=O)O [EPA, eicosapentaenoic acid] |  |  |  |  |  |  |  |  | cleared in the first pass (liver) [3]: ≤ 90%
CC(CCc1ccccc1)NCC(O)c1ccc(O)c(C(N)=O)c1 (stereo not shown) [Labetalol] |  | 100% | 55-60% |  | Hepatic | No | < 5% | Biliary/fecal | Half-life (hr) ([2]; IV): ~5.5 IV hr; Half-life (hr) ([2]; oral): 6-8 oral hr; Time to Peak Effect Single dose ([2]; IV): 0.083 h (IV); Time to Peak Effect Single dose ([2]; oral): 2 to 4 h
COCCc1ccc(OCC(O)CNC(C)C)cc1 (stereo not shown) [Metoprolol] | 3 to 7 |  |  |  |  |  |  |  | 
CC(C)(C)NCC(O)COc1cccc2c1CC(O)C(O)C2 (stereo not shown) [Nadolol] | 20 to 24 | 30% |  | 4 | None | Yes | 70% | Renal | Half-life ([2]; stated in the text): 10 to 24 h; route of elimination ([2]; stated in the text): kidney excreted
C=CCOc1ccccc1OCC(O)CNC(C)C (stereo not shown) [Oxprenolol] | 1.3 to 1.5 | 90% |  |  | Hepatic |  | < 5% | Renal | 
CC(C)(C)NC[C@H](O)COc1ccccc1C1CCCC1 [Penbutolol] | 5 | 100% | 90% | 1.5 to 3 | Hepatic | No | 0% |  | 
CC(C)NCC(O)COc1cccc2[nH]ccc12 (stereo not shown) [Pindolol] | 3 to 4 | 90-100% |  |  |  |  | 40% | Renal | 
CC(C)NCC(O)COc1cccc2ccccc12.Cl (stereo not drawn) [Propranolol, 2-Propanol, 1-[(1-methylethyl)amino]-3-(1-naphthalenyloxy)-, hydrochloride, (+)-] | 3 to 5 |  |  |  |  |  |  |  | adverse events ([4]; both previous trials): No adverse events were reported; elevated inflammatory cytokines [4, 5]: reduction; elevated resting energy expenditure [4, 5]: reduction; elevated inflammatory cytokines [4, 6]: reduction; elevated resting energy expenditure [4, 6]: reduction; rate of loss of lean body mass [4, 6]: reduction; stability of the solid ([1]; crystalline solid): stable; solubility in ethanol / alcohol [1]: readily soluble; solubility in water [1]: readily soluble
CC(C)NCC(O)c1ccc(NS(C)(=O)=O)cc1 (stereo not shown) [Sotalol] | 7 to 18 | >80% |  |  |  |  | 75% | Renal | 
CC(C)(C)NC[C@H](O)COc1nsnc1N1CCOCC1 [Timolol] | 4 | 90% |  | 1 to 2 | Hepatic | No | 20% |  | Elimination (route) ([2]; in vivo, fecal elimination): Fecal; Elimination (route) ([2]; in vivo, renal elimination): Renal
